Experimental data: patent US10016382B2, “Method for decreasing skeletal muscle damage and/or oxidative stress in mammals” (LONZA INC., priority 2014, dated 2018)
Where “and” joins values, the source holds several entries; their conditions need not be identical. Equal entries are not always repeated. Marks after values point to notes of the source that are not given here.

What was measured:
[1] = Daily food consumption, Example 1; type: in vivo, dog; conditions: Ex.1, 250 mg/d; for Daily Food Intake: mean ± SEM
Experimental: Experimental Design: Forty Labrador Retrievers (labs) ranging in age from 1 to 3.5 years were incorporated into a two dietary treatment study. The two dietary treatments were based on feeding the test dogs the same low L-carnitine diet but adding 250 mg per day of L-carnitine to the L-carnitine group. Each of the L-carnitine dogs received the daily 250 mg of L-carnitine mixed with an additional 3.75 g sugar. The control dogs received 4 g of sugar each day. Twenty labs of equal gender, age, excitement level, frame size, body weight and genetic background were utilized for each of the two treatments. The labs utilized for the nutrition study were from a minimum of 6 different bitches. The lean body mass of the 40 test dogs was determined by scanning with the DEXA and the final key component utilized to assure equal groups. Prior to the start of the study, the labs were acclimated to the experimental diets for a minimum of 10 days. The labs were weighed at the beginning of the 90 day study and weighed every two weeks throughout the study. Feed consumption was determined daily by weighing feed provided and feed refusals. The quantity of food provided each dog on a daily basis was adjusted based on maintaining a minimum initial starting body weight throughout the study. The dog food was provided by Lonza Inc. and was equal to the minimum guaranteed analysis of Gold N Pro (MFA of Missouri) that the performance dogs had been consuming prior to the start of the study (Table 1).

skeletal muscle = assay: Fractional breakdown rate (FBR) of skeletal muscle, 3-methylhistidine, Example 2 part two; type: in vivo, dog; conditions: for FBR: run, muscle samples
From the text: Twenty-six Labrador Retrievers ranging in age from 1.5 to 4.5 years were chosen from part one of the study and were fed for an additional 60 days following the termination of part one of the study. Test dogs remained in their previous treatment groups. Measurements on Actical movements/kg BW/mile endurance runs obtained during part one of the study were utilized to ensure that both the control and the L-carnitine groups were equal for performance potential. The lean body mass of the test dogs was determined by scanning with the DEXA as an additional measure for ensuring equal groups. Twelve dogs (6 males and 6 females) were assigned to each treatment group. Two additional dogs (1 male and 1 female) were fed the low carnitine basal diet of the control group and were used as controls that were not enriched with isotopes during the study; these two control dogs were used to measure the natural amount of 15N Phe in the sample. During the 60 day trial, the test dogs were fed low-carnitine basal diets with or without L-carnitine supplementation in a manner analogous to that of part one of the study. For three days prior to the final muscle biopsy and blood collection, all test dogs were feed an “all vegetarian plus egg” diet from Purina LabDiet that had nutrient specifications that were equivalent to that of the low carnitine basal diet. […] At the end of the 60 day training program, 24 of the dogs (12 resting and 12 running) were infused with a bolus dose of 15N Phe. […] Forty-five minutes after infusion, a 5 mm Bergstrom muscle biopsy needle was used to take a biopsy of the biceps femoris muscle. The muscle samples were quickly frozen in liquid nitrogen and placed in a −80° C. freezer for later analysis]. Twenty-four hours after the resting dogs were infused with 15N Phe, the remaining 12 dogs (6 non-carnitine; 3 male and 3 female and 6 L-carnitine; 3 male and 3 female) were run for a 15 mile endurance run. Following a 30 minute period of measured physiological recovery (heart rate and body temperature), test dogs that completed the 15 mile run were infused with a 2% 15N Phe solution as described above; muscle biopsies were taken 45 minutes after infusion. Blood samples were taken from the carotid artery for each test dog and analyzed for 3 MH. Three days prior to taking the blood samples, the dogs were fed the “all vegetable plus egg” non-meat diet from Purina LabDiet to ensure that the 3 MH found in the blood represented the skeletal muscle protein breakdown. To process the samples, the acid-soluble fraction containing free amino acids was removed by addition of 2% (w/v) perchloric acid. After homogenization, samples were centrifuged at 3,000×g, and the supernatant, containing free amino acids, was removed. The protein precipitate was washed three times with 2% perchloric acid before being hydrolyzed in 6N HCL. The supernatant and precipitate, respectively, were then run through an ion-exchange column packed with Dowex 50WX8-200. Phenylalanine and 3-methylhistidine (3-MH) were eluted with 2 mL of 4N NH4OH and 1 mL of nanopure H2O into a new vial and then dried under vacuum. The tert-butyldimethylsilyl (tBDMS) derivative was formed by adding 800 μL of C2CH3CN-MTBSTFA (1:1) and incubating at 110° C. for 60 minutes. The same mass spectrometer was used to determine 3-MH. […] The 238 m/z fragment of 3-MH was monitored. The muscle samples were analyzed for the fractional breakdown rate (FBR). FBR was calculated as kd=3-MH daily excretion/3-MH muscle pool×100. […]

C[N+](C)(C)C[C@H](O)CC(=O)[O-] [L-carnitine]
Daily Food Intake ([1]; Week 2): 723 ± 26 n = 20 g
Daily Food Intake ([1]; Week 4): 636 ± 30 n = 20 g
Daily Food Intake ([1]; Week 5): 639 ± 27 n = 20 g
Daily Food Intake ([1]; Week 6): 651 ± 26 n = 20 g
Daily Food Intake ([1]; Week 7): 626 ± 24 n = 20 g
Daily Food Intake ([1]; Week 8): 626 ± 24 n = 20 g
Daily Food Intake ([1]; Week 9): 622 ± 26 n = 20 g
Daily Food Intake ([1]; Week 10): 570 ± 25 n = 20 g
Daily Food Intake ([1]; Week 11): 577 ± 24 n = 20 g
Daily Food Intake ([1]; Week 13): 555 ± 20 n = 20 g
Food consumption vs control ([1]; over the entire 13 wk period): not significantly different
Daily Food Intake ([1]; overall Average of 13 wk study): 626 g and 626 ± 24 n = 20 g
Fractional Breakdown Rate (FBR) of muscle samples (skeletal muscle; Ex.2 part two, 250 mg/d, adjusted for gender and exercise state): 1.92%
FBR (% protein breakdown rate/day) of skeletal muscle (skeletal muscle; Ex.2 part two, 250 mg/d, exercised females (15 mile endurance run)): 3.26%
FBR of skeletal proteins (skeletal muscle; Ex.2 part two, 250 mg/d, running males): 1.26%
FBR (skeletal muscle; Female): 3.26^a %
FBR (skeletal muscle; Male): 1.26^a %
